Results as given in ChEMBL document CHEMBL4819045 (Bioorg Med Chem Lett, 2021).

Legend:
[1] = in vitro; settings: rat
[2] = PAMPA
[3] = in vitro; settings: PAMPA
[4] = rat, microsomes

Row | Compound | half-life ([1]; liver microsomes) [min] | Papp [3] [nm/s] | also measured
1 | O=C(Nc1c(Cl)cc([N+](=O)[O-])cc1Cl)c1cc(Cl)ccc1O | 20 | – | –
2 | COc1ccc(Cl)cc1C(=O)Nc1ccc([N+](=O)[O-])cc1Cl | 27 | – | permeability [2]: 1007 10^-6 cm/s
3 | O=C(Nc1ncc([N+](=O)[O-])s1)c1cc(Cl)ccc1O | 3 | 370 | –
4 | O=C(Nc1ccc([N+](=O)[O-])cc1)c1cc(Cl)ccc1O | – | – | permeability [2]: 127.1 10^-6 cm/s; Stabilty [4]: 22 min
5 | O=C(Nc1ccc(Cl)cc1)c1cc(Cl)ccc1O | 14 | 2970 | –
6 | O=C(Nc1ccc(C(F)(F)F)cc1)c1cc(Cl)ccc1O | > 30 | < 223 | –
7 | Nc1ccc(NC(=O)c2cc(Cl)ccc2O)c(Cl)c1 | 30 | 1520 | –
8 | Cc1ccc(O)c(C(=O)Nc2ccc([N+](=O)[O-])cc2Cl)c1 | 19.5 | 1340 | –
9 | O=C(Nc1ccc(F)cc1)c1cc(Cl)ccc1O | 18.4 | – | permeability [2]: 390.8 10^-6 cm/s
10 | COc1ccc(NC(=O)c2cc(Cl)ccc2O)cc1 | 3.3 | 810 | –
11 | O=C(Nc1ccc(C(F)(F)F)cc1Cl)c1cc(Cl)ccc1O | > 30 | – | –
12 | O=C(Nc1ccc(F)cc1F)c1cc(Cl)ccc1O | 18 | – | –
13 | O=C(Nc1c(F)cccc1F)c1cc(Cl)ccc1O | > 30 | 320 | –
14 | O=C(Nc1ccc(F)c(Cl)c1)c1cc(Cl)ccc1O | 11 | – | –
15 | O=C(Nc1ccccc1C(F)(F)F)c1cc(Cl)ccc1O | 15 | 260 | –
16 | O=C(Nc1ccc([N+](=O)[O-])cc1Cl)c1cc(Cl)ccc1OC1CCNCC1 | > 30 | 5170 | –
17 | NCCOc1ccc(Cl)cc1C(=O)Nc1ccc([N+](=O)[O-])cc1Cl | > 30 | – | permeability [2]: 1023 10^-6 cm/s
18 | O=C(Nc1ccccc1[N+](=O)[O-])c1cc(Cl)ccc1O | – | 1530 | –
19 | CC(=O)Nc1ccc(NC(=O)c2cc(Cl)ccc2O)c(Cl)c1 | > 30 | 870 | –
20 | Cc1ccc(NC(=O)c2cc(Cl)ccc2O)cc1 | 1.6 | 210 | –
21 | O=C(Nc1ccc([N+](=O)[O-])cc1Cl)c1ccc2ccccc2c1O | 16.6 | 902 | –
22 | O=C(Nc1ccc(C(F)(F)F)cc1)c1cc(Br)ccc1O | > 30 | – | –
23 | O=C(Nc1ccccc1Cl)c1cc(Cl)ccc1O | 19 | – | permeability [2]: 118 10^-6 cm/s

Row | Compound | half-life ([1]; liver microsomes) [min] | Papp [3] [nm/s] | also measured
24 | O=C(Nc1ccc(Cl)cc1Cl)c1cc(Cl)ccc1O | > 30 | < 224 | –
25 | O=C(Nc1c(Cl)cccc1Cl)c1cc(Cl)ccc1O | 24 | 730 | –
26 | O=C(Nc1ccc(F)cc1Cl)c1cc(Cl)ccc1O | 19.3 | 505 | –
27 | N#Cc1ccc(NC(=O)c2cc(Cl)ccc2O)c(Cl)c1 | > 30 | 51 | –
28 | O=C(Nc1ccc([N+](=O)[O-])c(Cl)c1)c1cc(Cl)ccc1O | 3.8 | 680 | –
29 | O=C(Nc1ccncc1Cl)c1cc(Cl)ccc1O | > 30 | 310 | –
30 | COc1cc([N+](=O)[O-])ccc1NC(=O)c1cc(Cl)ccc1O | > 30 | – | –
31 | O=C(Nc1ccc([N+](=O)[O-])cc1Cl)c1c(O)ccc2ccccc12 | 14.4 | 3560 | –
32 | CS(=O)(=O)Nc1ccc(Br)cc1C(=O)Nc1ccc([N+](=O)[O-])cc1Cl | > 30 | 851 | –
33 | CC(C)c1cnc(NC(=O)c2cc(Cl)ccc2O)s1 | 2 | 1170 | –
34 | COc1ccc(Cl)c(NC(=O)c2cc(Cl)ccc2O)c1 | 5.4 | 340 | –
35 | N#Cc1ccc(NC(=O)c2ccc3ccccc3c2O)c(Cl)c1 | 27 | 1110 | –
36 | CN1CCC(NC(=O)c2cc(Cl)ccc2O)CC1 | 1.8 | 2120 | –
37 | CC(=O)c1ccc(O)c(C(=O)Nc2ccc([N+](=O)[O-])cc2Cl)c1 | > 30 | 331 | –
38 | COc1cccc(NC(=O)c2cc(Cl)ccc2O)c1 | 4 | 430 | –
39 | COc1cc([N+](=O)[O-])ccc1NC(=O)c1cc(Br)ccc1O | > 30 | – | –
40 | O=C(Nc1ccc([N+](=O)[O-])c2ccccc12)c1cc(Cl)ccc1O | 10.7 | 1410 | –
41 | O=C(Nc1ccc(C(F)(F)F)c(Cl)c1)c1cc(Br)ccc1O | > 30 | 232 | –
42 | CC(=O)Nc1ccccc1C(=O)Nc1ccc([N+](=O)[O-])cc1Cl | – | 4310 | –
43 | N#Cc1ccc(NC(=O)c2cc(-c3ccc(F)cc3F)ccc2O)c(Cl)c1 | > 30 | – | –
44 | CN(C)C(=O)c1cccc(NC(=O)c2cc(Cl)ccc2O)c1 | 26 | 50 | –
45 | O=C(Nc1ccc([N+](=O)[O-])cc1Cl)c1cc(Cl)ccc1NS(=O)(=O)c1ccccc1 | > 30 | – | permeability [2]: 2250 10^-6 cm/s
46 | O=C(Nc1ccc([N+](=O)[O-])cc1Cl)c1cnc2ccccc2c1O | 18 | 4990 | –

Row | Compound | half-life ([1]; liver microsomes) [min] | Papp [3] [nm/s] | also measured
47 | O=C(Nc1ccc([N+](=O)[O-])cc1Cl)c1cc(-c2ccc(F)cc2F)ccc1O | > 30 | < 237 | –
48 | Nc1cccc(Cl)c1C(=O)Nc1ccc([N+](=O)[O-])cc1Cl | 2.2 | 4500 | –
49 | O=C(Nc1ccc([N+](=O)[O-])c(Cl)c1)c1cc(Br)ccc1O | 20.3 | – | –
50 | N#Cc1ccc(NC(=O)c2cccc3cc[nH]c23)c(Cl)c1 | 15 | 5530 | –
51 | NS(=O)(=O)c1ccc(NC(=O)c2cc(Cl)ccc2O)cc1 | > 30 | < 10 | –
52 | O=C(Nc1c(Cl)cc(F)cc1Cl)c1cc(Cl)ccc1O | 13 | 250 | –
53 | Nc1ccc(Cl)cc1C(=O)Nc1ccc([N+](=O)[O-])cc1Cl | 8.7 | 6710 | –
54 | O=C(Nc1ccc([N+](=O)[O-])cc1Cl)c1cc([N+](=O)[O-])ccc1O | > 30 | 303 | –
55 | O=C(Nc1ccc2cc([N+](=O)[O-])ccc2c1)c1cc(Cl)ccc1O | > 30 | 4470 | –
56 | O=C(Nc1ccc([N+](=O)[O-])cc1Cl)c1c(O)cccc1O | 26.2 | – | –
57 | O=C(Nc1ccc(C(F)(F)F)cc1Cl)c1ccc2ccccc2c1O | > 30 | – | –
58 | O=C(Nc1ccc(C(F)(F)F)c(F)c1)c1cc(Br)ccc1O | > 30 | – | –
59 | O=C(Nc1ccc([N+](=O)[O-])cc1Cl)c1ccc(Cl)cc1O | 21.2 | – | –
60 | O=C(Nc1ccc(C(F)(F)F)cc1Cl)c1cc(-c2ccc(F)cc2F)ccc1O | > 30 | – | –
61 | COc1ccc(C(=O)Nc2ccc([N+](=O)[O-])cc2Cl)c(O)c1 | > 30 | < 30 | –
62 | Cc1cccc(NC(=O)c2cc(Cl)ccc2O)c1C | 9.4 | 480 | –
63 | O=C(Nc1ccc([N+](=O)[O-])cc1Cl)c1cccc2cc[nH]c12 | > 30 | – | permeability [2]: 1763 10^-6 cm/s
64 | COc1ccc(O)c(C(=O)Nc2ccc([N+](=O)[O-])cc2Cl)c1 | 17.8 | 671 | –
65 | O=C(Nc1ccc(C(F)(F)F)cc1Cl)c1cc(Br)ccc1O | > 30 | – | –
66 | O=C(Nc1ccc([N+](=O)[O-])cc1Cl)c1cc(Br)ccc1O | > 30 | 671 | –
67 | O=C(Nc1ccc([N+](=O)[O-])cc1Cl)c1cc(Cl)ccc1O [NICLOSAMIDE] | – | < 10 | half-life ([1]; microsomes): > 30 min
